Where two headings read alike, the source gives them in different places.
Key:
LY2345/ABC = test: DLBCL PDX model; format: in vivo, mouse; settings: 17 days, QD PO, TL-895 and ibrutinib 25 mg/kg, acalabrutinib 30 mg/kg
Procedure: (§1) All three compounds were formulated in a solution of 20% kleptose (hydroxypropyl β-cyclodextrin) in 50 mM citrate and administered QD PO during the treatment periods given for each model.
(§2) For mean values > 0: %ΔT/ΔC=endtumorvolumetreatment-starttumorvolumetreatment/endtumorvolumecontrol-starttumorvolumecontrol×100
(§3) For mean values ≤ 0 (i.e. regression): %ΔT/ΔC=endtumorvolumetreatment-starttumorvolumetreatment/starttumorvolumecontrol×100
(§4) The research use of patient material in PDX models at Crown Bioscience, XenoSTART and EPO-GmbH was approved by the local Institutional Ethical Review Boards and the patients provided written informed consent. Molecular analysis was performed on samples from each model using the EdgeSeq DLBCL Cell of Origin Assay (HTG Molecular Diagnostics, Tucson, AZ, USA) to confirm ABC-GCB DLBCL subtype.
(§5) Stock mice inoculated with human DLBCL cancer tissues were euthanized by progressive hypoxemia with CO2 and tumors were harvested. Tumor fragments were used at three different contract research organizations for xenotransplantation into different mouse strains for the following models: (1) 6-week-old female nude (NMRI:nu/nu) or CB17-SCID mice (Javier Labs, France): Ly12638, Ly11212, and Ly13005 (Experimental Pharmacology and Oncology Berlin-Buch GmbH [EPO-GmbH], Germany); (2) 6–8-week-old female BALB/c nude or NOD SCID mice (Beijing HFK Bioscience Co., Ltd. Beijing, China): LY0257, LY2214, LY3604, LY2298, LY2264, LY2318, and LY2345 (Crown Bioscience Inc, Taicang, China); and (3) 6–12-week-old female CB-17 SCID mice (CB17/Icr-Prkdc^scid/IcrIcoCrl Charles River Laboratories, Wilmington, MA, USA): ST118B, ST949B, ST359, ST949, ST2761B, ST2963, ST1361, ST2078, ST1735B, ST2902, and ST3497 (XenoSTART, San Antonio, TX, USA).
(§6) When the average tumor volume was within a pre-determined range (100–300 mm^3), mice were assigned to treatment groups to balance the mean starting tumor volumes (n = 5 for all models except LY13005, which was n = 3). […] Tumor volumes were recorded 2–3 times per week. Mean %∆T/∆C was calculated at the end of treatment as described above for MCL models.
(§7) Tumor volume was used as the measure of efficacy for statistical analyses of in vivo xenograft studies. Tumor volume data from individual studies were log-transformed and statistically analyzed using repeated measures analysis of covariance (RM-ANCOVA) to determine significant treatment effects, followed by post hoc Tukey’s test for multiple pairwise comparisons (all α = 0.05) using R software. Day 0 data were used only as covariates in the analyses because tumor measurements on that day were recorded before the first treatments were administered.

ST2761B/GCB = test: DLBCL PDX model; format: in vivo, mouse; settings: 24 days, QD PO, TL-895 and ibrutinib 25 mg/kg, acalabrutinib 30 mg/kg
Procedure: as §1, §2, §3, §4, §5, §6, §7

ST118B/ABC = test: DLBCL PDX model; format: in vivo, mouse; settings: ST118B/ABC MyD88, 19 days, QD PO; TL-895 and ibrutinib 25 mg/kg, acalabrutinib 30 mg/kg
Procedure: as §1, §2, §3, §4, §5, §6, §7

ST2963/GCB = test: DLBCL PDX model; format: in vivo, mouse; settings: 13 days, QD PO, TL-895 and ibrutinib 25 mg/kg, acalabrutinib 30 mg/kg
Procedure: as §1, §2, §3, §4, §5, §6, §7

ST2078/GCB = test: DLBCL PDX model; format: in vivo, mouse; settings: 20 days, QD PO, TL-895 and ibrutinib 25 mg/kg, acalabrutinib 30 mg/kg
Procedure: as §1, §2, §3, §4, §5, §6, §7

ST1361/GCB = test: DLBCL PDX model; format: in vivo, mouse; settings: 11 days, QD PO, TL-895 and ibrutinib 25 mg/kg, acalabrutinib 30 mg/kg
Procedure: as §1, §2, §3, §4, §5, §6, §7

ST2902/GCB = test: DLBCL PDX model; format: in vivo, mouse; settings: 22 days, QD PO, TL-895 and ibrutinib 25 mg/kg, acalabrutinib 30 mg/kg
Procedure: as §1, §2, §3, §4, §5, §6, §7

ST23497/GCB = test: DLBCL PDX model; format: in vivo, mouse; settings: 17 days, QD PO, TL-895 and ibrutinib 25 mg/kg, acalabrutinib 30 mg/kg
Procedure: as §1, §2, §3, §4, §5, §6, §7

LY3604/ABC = test: DLBCL PDX model; format: in vivo, mouse; settings: 17 days, QD PO, TL-895 and ibrutinib 25 mg/kg, acalabrutinib 30 mg/kg
Procedure: as §1, §2, §3, §4, §5, §6, §7

LY2214/Unc = test: DLBCL PDX model; format: in vivo, mouse; settings: 17 days, QD PO, TL-895 and ibrutinib 25 mg/kg, acalabrutinib 30 mg/kg
Procedure: as §1, §2, §3, §4, §5, §6, §7

ST949/GCB = test: DLBCL PDX model; format: in vivo, mouse; settings: 14 days, QD PO, TL-895 and ibrutinib 25 mg/kg, acalabrutinib 30 mg/kg
Procedure: as §1, §2, §3, §4, §5, §6, §7

LY12638/GCB = test: DLBCL PDX model; format: in vivo, mouse; settings: 25 days, QD PO, TL-895 and ibrutinib 25 mg/kg, acalabrutinib 30 mg/kg
Procedure: as §1, §2, §3, §4, §5, §6, §7

ST1735B/GCB = test: DLBCL PDX model; format: in vivo, mouse; settings: 29 days, QD PO, TL-895 and ibrutinib 25 mg/kg, acalabrutinib 30 mg/kg
Procedure: as §1, §2, §3, §4, §5, §6, §7

LY11212/GCB = test: DLBCL PDX model; format: in vivo, mouse; settings: 13 days, QD PO, TL-895 and ibrutinib 25 mg/kg, acalabrutinib 30 mg/kg
Procedure: as §1, §2, §3, §4, §5, §6, §7

ST359/GCB = test: DLBCL PDX model; format: in vivo, mouse; settings: 11 days, QD PO, TL-895 and ibrutinib 25 mg/kg, acalabrutinib 30 mg/kg
Procedure: as §1, §2, §3, §4, §5, §6, §7

LY0257/ABC = test: DLBCL PDX model; format: in vivo, mouse; settings: LY0257/ABC MyD88, 17 days, QD PO; TL-895 and ibrutinib 25 mg/kg, acalabrutinib 30 mg/kg
Procedure: as §1, §2, §3, §4, §5, §6, §7

LY2318/ABC = test: DLBCL PDX model; format: in vivo, mouse; settings: 14 days, QD PO, TL-895 and ibrutinib 25 mg/kg, acalabrutinib 30 mg/kg
Procedure: as §1, §2, §3, §4, §5, §6, §7

LY2298/ABC = test: DLBCL PDX model; format: in vivo, mouse; settings: LY2298/ABC MyD88, 16 days, QD PO; TL-895 and ibrutinib 25 mg/kg, acalabrutinib 30 mg/kg
Procedure: as §1, §2, §3, §4, §5, §6, §7

LY2264/ABC = test: DLBCL PDX model; format: in vivo, mouse; settings: LY2264/ABC MyD88, 25 days, QD PO; TL-895 and ibrutinib 25 mg/kg, acalabrutinib 30 mg/kg
Procedure: as §1, §2, §3, §4, §5, §6, §7

LY13005/ABC = test: DLBCL PDX model; format: in vivo, mouse; settings: 14 days, QD PO, TL-895 and ibrutinib 25 mg/kg, acalabrutinib 30 mg/kg
Procedure: as §1, §2, §3, §4, §5, §6, §7

DLBCL = settings: cited from earlier work

## C=CC(=O)N1CCC[C@@H](n2nc(-c3ccc(Oc4ccccc4)cc3)c3c(N)ncnc32)C1 [Ibrutinib]
LY2345/ABC
  %ΔT/ΔC: 118%
ST2761B/GCB
  %ΔT/ΔC: 71%
ST118B/ABC
  %ΔT/ΔC: 90%
ST2963/GCB
  %ΔT/ΔC: 81%
ST2078/GCB
  %ΔT/ΔC: 75^A %
ST1361/GCB
  %ΔT/ΔC: 65^V %
ST2902/GCB
  %ΔT/ΔC: 92%
ST23497/GCB
  %ΔT/ΔC: 95%
LY3604/ABC
  %ΔT/ΔC: 38^V %
LY2214/Unc
  %ΔT/ΔC: 77%
ST949/GCB
  %ΔT/ΔC: 86%
LY12638/GCB
  %ΔT/ΔC: 121%
ST1735B/GCB
  %ΔT/ΔC: 75%
LY11212/GCB
  %ΔT/ΔC: 171%
ST359/GCB
  %ΔT/ΔC: 62%
LY0257/ABC
  %ΔT/ΔC: 88^M %
LY2318/ABC
  %ΔT/ΔC: 86%
LY2298/ABC
  %ΔT/ΔC: 69^A %
LY2264/ABC
  %ΔT/ΔC: 74^M %
LY13005/ABC
  %ΔT/ΔC: 71^M %
DLBCL; combined with R-ICE, patients with GCB-DLBCL
  ORR: 90%
DLBCL; patients with ABC-DLBCL
  Reported response rate: 37%
DLBCL; patients with GCB-DLBLC
  Reported response rate: 5%
DLBCL; patients with wild type CD79B ABC-DLBCL
  ORR: 31%

## CC#CC(=O)N1CCC[C@H]1c1nc(-c2ccc(C(=O)Nc3ccccn3)cc2)c2c(N)nccn12 [Acalabrutinib]
LY2345/ABC
  %ΔT/ΔC: 108%
ST2761B/GCB
  %ΔT/ΔC: 94%
ST118B/ABC
  %ΔT/ΔC: 104%
ST2963/GCB
  %ΔT/ΔC: 116%
ST2078/GCB
  %ΔT/ΔC: 115^I %
ST1361/GCB
  %ΔT/ΔC: 74^V %
ST2902/GCB
  %ΔT/ΔC: 85%
ST23497/GCB
  %ΔT/ΔC: 100%
LY3604/ABC
  %ΔT/ΔC: 36^V %
LY2214/Unc
  %ΔT/ΔC: 63%
ST949/GCB
  %ΔT/ΔC: 72%
LY12638/GCB
  %ΔT/ΔC: 262%
ST1735B/GCB
  %ΔT/ΔC: 80%
LY11212/GCB
  %ΔT/ΔC: 126%
ST359/GCB
  %ΔT/ΔC: 54%
LY0257/ABC
  %ΔT/ΔC: 54^M %
LY2318/ABC
  %ΔT/ΔC: 102%
LY2298/ABC
  %ΔT/ΔC: 27^V,I %
LY2264/ABC
  %ΔT/ΔC: 48^V %
LY13005/ABC
  %ΔT/ΔC: 64^V %
DLBCL; patients with either ABC- or GCB-DLBCL
  Combined overall response rate (ORR): 24%

## C=CC(=O)N1CCC(F)(CNc2ncnc(N)c2-c2ccc(Oc3ccccc3)cc2)CC1 [TL-895]
LY2345/ABC
  %ΔT/ΔC: 120%
ST2761B/GCB
  %ΔT/ΔC: 90%
ST118B/ABC
  %ΔT/ΔC: 68%
ST2963/GCB
  %ΔT/ΔC: 106%
ST2078/GCB
  %ΔT/ΔC: 114%
ST1361/GCB
  %ΔT/ΔC: 60^V %
ST2902/GCB
  %ΔT/ΔC: 104%
ST23497/GCB
  %ΔT/ΔC: 101%
LY3604/ABC
  %ΔT/ΔC: 32^V %
LY2214/Unc
  %ΔT/ΔC: 93%
ST949/GCB
  %ΔT/ΔC: 83%
LY12638/GCB
  %ΔT/ΔC: 84%
ST1735B/GCB
  %ΔT/ΔC: 101%
LY11212/GCB
  %ΔT/ΔC: 115%
ST359/GCB
  %ΔT/ΔC: 71%
LY0257/ABC
  %ΔT/ΔC: 45^V,I,A %
LY2318/ABC
  %ΔT/ΔC: 104%
LY2298/ABC
  %ΔT/ΔC: 38%
LY2264/ABC
  %ΔT/ΔC: 37^V,I %
LY13005/ABC
  %ΔT/ΔC: 43^V,I %
DLBCL; preliminary evidence
  Complete responses in patients with DLBCL: 1

— article PMC10663516 (Scientific Reports, 2023)
